According to patent US20240261417A1, “SOS1 DEGRADING AGENT AND PREPARATION METHOD THEREFOR AND APPLICATION THEREOF” (SHANGHAI LEADINGTAC PHARMACEUTICAL CO. LTD., priority 2021, published 2024):

Target: T1, SOS1 protein (Homo sapiens, UniProt Q07889)
T1 sequence (Q07889 1-1333): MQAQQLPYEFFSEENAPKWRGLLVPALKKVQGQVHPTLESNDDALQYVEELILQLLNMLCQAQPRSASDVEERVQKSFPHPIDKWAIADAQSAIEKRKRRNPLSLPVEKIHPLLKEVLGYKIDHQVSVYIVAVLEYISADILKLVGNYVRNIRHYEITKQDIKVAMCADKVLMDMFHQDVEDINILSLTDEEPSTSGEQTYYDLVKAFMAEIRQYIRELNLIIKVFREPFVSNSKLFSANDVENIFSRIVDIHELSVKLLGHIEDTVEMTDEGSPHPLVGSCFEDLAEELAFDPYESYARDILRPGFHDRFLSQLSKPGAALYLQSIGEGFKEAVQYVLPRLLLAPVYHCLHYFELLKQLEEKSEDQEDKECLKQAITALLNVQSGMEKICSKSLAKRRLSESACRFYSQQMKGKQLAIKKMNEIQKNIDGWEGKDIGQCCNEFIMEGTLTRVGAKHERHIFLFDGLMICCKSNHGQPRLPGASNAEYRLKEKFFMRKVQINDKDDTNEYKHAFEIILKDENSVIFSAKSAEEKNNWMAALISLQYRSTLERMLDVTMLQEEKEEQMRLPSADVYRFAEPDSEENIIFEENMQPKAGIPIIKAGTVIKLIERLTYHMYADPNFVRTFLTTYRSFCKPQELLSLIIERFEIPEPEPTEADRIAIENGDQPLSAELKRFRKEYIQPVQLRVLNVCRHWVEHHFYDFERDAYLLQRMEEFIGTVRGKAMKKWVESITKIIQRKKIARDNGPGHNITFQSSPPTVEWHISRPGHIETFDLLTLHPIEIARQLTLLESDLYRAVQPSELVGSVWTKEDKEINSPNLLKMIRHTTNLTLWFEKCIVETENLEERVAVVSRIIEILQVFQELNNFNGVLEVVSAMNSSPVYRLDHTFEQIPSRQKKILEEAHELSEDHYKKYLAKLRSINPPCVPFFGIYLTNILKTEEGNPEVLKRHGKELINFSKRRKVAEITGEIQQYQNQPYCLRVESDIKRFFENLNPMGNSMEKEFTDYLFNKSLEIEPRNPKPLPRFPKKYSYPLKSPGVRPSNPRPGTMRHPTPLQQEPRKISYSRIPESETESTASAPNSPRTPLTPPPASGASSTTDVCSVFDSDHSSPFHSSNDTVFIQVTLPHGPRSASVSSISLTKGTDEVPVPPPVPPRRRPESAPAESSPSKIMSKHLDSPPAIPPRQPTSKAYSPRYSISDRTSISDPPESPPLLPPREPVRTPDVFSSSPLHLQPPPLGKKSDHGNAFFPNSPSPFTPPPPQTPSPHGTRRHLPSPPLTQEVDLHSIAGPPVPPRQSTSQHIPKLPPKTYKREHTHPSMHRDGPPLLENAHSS
Assay: SOS1 degradation assay (Western blot), NCI-H358 cells
Type: cell-based
Set-up: The degradation of SOS1 by the compounds was investigated on KRAS G12C mutant human non-small cell lung cancer cells NCI-H358; host or cells: NCI-H358 (human cancer cell lines)
Details: SOS1 degradation, NCI-H358 cells, 24 h, Western blot; for DC50: read-out: NCI-H358 (G12C) DC50; for Dmax: read-out: NCI-H358 (G12C) Dmax
Protocol: The specific procedures were as follows:
0.95 mL of cells were seeded into each well of a 24-well cell culture plate to achieve a cell density of 5×10^5 cells/well; the cell plate was incubated in an incubator at 37° C. with 5% CO2 overnight. Then 50 μL of the compound solution after dilution was added to each of the wells with the corresponding cells, so that the final concentration of the compound was in a range of 0.03-3000 nM. […] After dosing, the cell plate was incubated in an incubator at 37° C. with 5% CO2 for 24 h. […] After the plate was left to stand on ice for 30 min, the protein lysate in each well was transferred to a 1.5 mL centrifuge tube and centrifuged at 15000 g for 20 min at 4° C. The cell lysate supernatant after centrifugation was cryopreserved at −80° C. for testing and was used for determining the degradation level of the SOS1 protein by a WB method. The concentration of total protein in the cell lysate supernatant was determined using the BCA Protein Quantification Kit (Tiangen, PA115-02).
The concentration of total protein in the cell lysate was determined by BCA. The total protein was adjusted to 0.5 μg/μL with PBS and 5× SDS-PAGE protein loading buffer (Beyotime, P0015L), incubated in a water bath at 100° C. for 15 min, incubated in an ice bath on ice for 5 min, centrifuged at 14000 g for 1 min at 4° C., and mixed well as a loading sample for WB. Protein electrophoresis was performed on a precast gel (KeyGEN, KGMGO10W15) with a loading volume of 10 μL (total protein: 5 μg) using a Tris-MOPS-SDS running solution (Adamas, P1598253) at a constant voltage of 120 V for 55 min. After the electrophoresis, the protein on the gel strip was transferred to a PVDF membrane at a constant current of 250 mA for 65 min. After the membrane transfer, the membrane was incubated in 1× QuickBlock blocking buffer (Beyotime, P0235) for 30 min at room temperature. […] The protein map was subjected to gray value analysis by the chemiluminescence imaging system from Clinx. […] Then the degradation rate was calculated by comparing the gray correction value with the gray correction value of the control group. Then nonlinear curve fitting was performed by GraphPad Prism 8 in the logarithmic concentration-inhibition rate to obtain the DC50 and Dmax values of the compounds.

Row | DC50 | Dmax | NCI-H358 (G12C) Dmax | Structure (SMILES)
1 | 1000 to 10000 nM | < 30% | – | COc1cc2nc(C)nc(N[C@H](C)c3cc(N)cc(C(F)(F)F)c3)c2cc1[C@H]1CC[C@H](C(=O)N2CCN(CC3CCN(C(=O)COc4ccc(Cl)c(N5CCC(=O)NC5=O)c4)CC3)CC2)CC1 [Example 37, 1-(5-(2-(4-((4-((1R,4R)-4-(4-(((R)-1-(3-amino-5-(trifluoromethyl)phenyl)ethyl)amino)-7-methoxy-2-methylquinazolin-6-yl)cyclohexane-1-carbonyl)piperazin-1-yl)methyl)piperidin-1-yl)-2-oxoethoxy)-2-chlorophenyl)dihydropyrimidine-2,4(1H,3H)-dione]
2 | 1000 to 10000 nM | 30 to 50% | – | COc1cc2nc(C)nc(N[C@H](C)c3cc(N)cc(C(F)(F)F)c3)c2cc1[C@H]1CC[C@H](C(=O)N2CCN(CC3CCC4(CC3)CCN(C(=O)c3cccc(N5CCC(=O)NC5=O)c3)CC4)CC2)CC1 [Example 21, 1-(3-(9-((4-((1R,4R)-4-(4-(((R)-1-(3-amino-5-(trifluoromethyl)phenyl)ethyl)amino)-7-methoxy-2-methylquinazolin-6-yl)cyclohexane-1-carbonyl)piperazin-1-yl)methyl)-3-azaspiro[5.5]undecane-3-carbonyl)phenyl)dihydropyrimidine-2,4(1H,3H)-dione]
3 | – | – | C (when 30≤Dmax (%)<50, the level was C) | COc1cc2nc(C)nc(N[C@@H](C)c3cc(N)cc(C(F)(F)F)c3)c2cc1[C@H]1CC[C@@H](C(=O)N2CCN(CCC3CCC4(CC3)CCN(C(=O)c3ccc(Cl)c(N5CCC(=O)NC5=O)c3)CC4)CC2)CC1 [Example 34, 1-(5-(9-(2-(4-((1S,4S)-4-(4-(((R)-1-(3-amino-5-(trifluoromethyl)phenyl)ethyl)amino)-7-methoxy-2-methylquinazolin-6-yl)cyclohexane-1-carbonyl)piperazin-1-yl)ethyl)-3-azaspiro[5.5]undecane-3-carbonyl)-2-chlorophenyl)dihydropyrimidine-2,4(1H,3H)-dione]
4 | 1000 to 10000 nM | < 30% | – | COc1cc2nc(C)nc(N[C@H](C)c3cc(N)cc(C(F)(F)F)c3)c2cc1[C@H]1CC[C@H](C(=O)N2CCC(CCC3CCN(C(=O)c4ccc(Cl)c(N5CCC(=O)NC5=O)c4)CC3)CC2)CC1 [Example 15, 1-(5-(4-(2-(1-((1R,4R)-4-(4-(((R)-1-(3-amino-5-(trifluoromethyl)phenyl)ethyl)amino)-7-methoxy-2-methylquinazolin-6-yl)cyclohexane-1-carbonyl)piperidin-4-yl)ethyl)piperidine-1-carbonyl)-2-chlorophenyl)dihydropyrimidine-2,4(1H,3H)-dione]
5 | 1000 to 10000 nM | < 30% | – | COc1cc2nc(C)nc(N[C@H](C)c3cc(N)cc(C(F)(F)F)c3)c2cc1[C@H]1CC[C@H](C(=O)N2CCN(CCOC3CCN(C(=O)c4ccc(Cl)c(N5CCC(=O)NC5=O)c4)CC3)CC2)CC1 [Example 30, 1-(5-(4-(2-(4-((1R,4R)-4-(4-(((R)-1-(3-amino-5-(trifluoromethyl)phenyl)ethyl)amino)-7-methoxy-2-methylquinazolin-6-yl)cyclohexane-1-carbonyl)piperazin-1-yl)ethoxy)piperidine-1-carbonyl)-2-chlorophenyl)dihydropyrimidine-2,4(1H,3H)-dione]
6 | 1000 to 10000 nM | 30 to 50% | – | COc1cc2nc(C)nc(N[C@H](C)c3cc(N)cc(C(F)(F)F)c3)c2cc1[C@H]1CC[C@H](C(=O)N2CCC(CN3CCC4(CC3)CCN(C(=O)c3ccc(Cl)c(N5CCC(=O)NC5=O)c3)CC4)CC2)CC1 [Example 7, 1-(5-(9-((1-((1R,4R)-4-(4-(((R)-1-(3-amino-5-(trifluoromethyl)phenyl)ethyl)amino)-7-methoxy-2-methylquinazolin-6-yl)cyclohexane-1-carbonyl)piperidin-4-yl)methyl)-3,9-diazaspiro[5.5]undecane-3-carbonyl)-2-chlorophenyl)dihydropyrimidine-2,4(1H,3H)-dione]
7 | < 50 nM | 80 to 100% | – | COc1cc2nc(C)nc(N[C@H](C)c3cc(N)cc(C(F)(F)F)c3)c2cc1[C@H]1CC[C@H](C(=O)N2CCN(CCCCC3CCN(C(=O)c4ccc(Cl)c(N5CCC(=O)NC5=O)c4)CC3)CC2)CC1 [Example 29, 1-(5-(4-(4-(4-((1R,4R)-4-(4-(((R)-1-(3-amino-5-(trifluoromethyl)phenyl)ethyl)amino)-7-methoxy-2-methylquinazolin-6-yl)cyclohexane-1-carbonyl)piperazin-1-yl)butyl)piperidine-1-carbonyl)-2-chlorophenyl)dihydropyrimidine-2,4(1H,3H)-dione]
8 | < 50 nM | 80 to 100% | – | COc1cc2nc(C)nc(N[C@H](C)c3cc(-c4ccccc4CN(C)C)cs3)c2cc1[C@H]1CC[C@H](C(=O)N2CCC(CCOCC3CCN(C(=O)c4ccc(Cl)c(N5CCC(=O)NC5=O)c4)CC3)CC2)CC1 [Example 48]

Row | Structure (SMILES) | DC50 | Dmax | NCI-H358 (G12C) Dmax
9 | COc1cc2nc(C)nc(N[C@H](C)c3cc(N)cc(C(F)(F)F)c3)c2cc1[C@H]1CC[C@H](C(=O)N2CCC(COCC3CCN(C(=O)c4ccc(Cl)c(N5CCC(=O)NC5=O)c4)CC3)CC2)CC1 [Example 76, 1-(5-(4-(((1-((1R,4R)-4-(4-(((R)-1-(3-amino-5-(trifluoromethyl)phenyl)ethyl)amino)-7-methoxy-2-methylquinazolin-6-yl)cyclohexane-1-carbonyl)piperidin-4-yl)methoxy-d2)methyl)piperidine-1-carbonyl)-2-chlorophenyl)dihydropyrimidine-2,4(1H,3H)-dione] | < 50 nM | – | –
10 | COc1cc2nc(C)nc(N[C@H](C)c3cc(N)cc(C(F)(F)F)c3)c2cc1C1CCC(C(=O)N2CCC(CCOCC3CCN(C(=O)c4ccc5c(c4)C(=O)N(C4CCC(=O)NC4=O)C5=O)CC3)CC2)CC1 (stereo partly drawn) [Example 39, 5-(4-((2-(1-((1S,4S)-4-(4-(((R)-1-(3-amino-5-(trifluoromethyl)phenyl)ethyl)amino)-7-methoxy-2-methylquinazolin-6-yl)cyclohexane-1-carbonyl)piperidin-4-yl)ethoxy)methyl)piperidine-1-carbonyl)-2-(2,6-dioxopiperidin-3-yl)isoindoline-1,3-dione] | < 50 nM | 80 to 100% | –
